For orientation: IC50 means the point on the concentration scale where inhibition reaches its midpoint. Low readings indicate inhibition by little substance, high ones a need for much substance.

A value given as a limit tells only on which side of the number the result lay.

Experiment [1] deals with T1, human EGF-R (Homo sapiens, UniProt P00533).
T1 construct: expressed in transfected cells; host or cells: F/L-HERc cells: murine IL-3-dependent line FDC-P1 infected with recombinant retrovirus (LXSN vector, GP+E86 packaging line) carrying human EGF-R cDNA
T1 sequence (P00533 25-1210): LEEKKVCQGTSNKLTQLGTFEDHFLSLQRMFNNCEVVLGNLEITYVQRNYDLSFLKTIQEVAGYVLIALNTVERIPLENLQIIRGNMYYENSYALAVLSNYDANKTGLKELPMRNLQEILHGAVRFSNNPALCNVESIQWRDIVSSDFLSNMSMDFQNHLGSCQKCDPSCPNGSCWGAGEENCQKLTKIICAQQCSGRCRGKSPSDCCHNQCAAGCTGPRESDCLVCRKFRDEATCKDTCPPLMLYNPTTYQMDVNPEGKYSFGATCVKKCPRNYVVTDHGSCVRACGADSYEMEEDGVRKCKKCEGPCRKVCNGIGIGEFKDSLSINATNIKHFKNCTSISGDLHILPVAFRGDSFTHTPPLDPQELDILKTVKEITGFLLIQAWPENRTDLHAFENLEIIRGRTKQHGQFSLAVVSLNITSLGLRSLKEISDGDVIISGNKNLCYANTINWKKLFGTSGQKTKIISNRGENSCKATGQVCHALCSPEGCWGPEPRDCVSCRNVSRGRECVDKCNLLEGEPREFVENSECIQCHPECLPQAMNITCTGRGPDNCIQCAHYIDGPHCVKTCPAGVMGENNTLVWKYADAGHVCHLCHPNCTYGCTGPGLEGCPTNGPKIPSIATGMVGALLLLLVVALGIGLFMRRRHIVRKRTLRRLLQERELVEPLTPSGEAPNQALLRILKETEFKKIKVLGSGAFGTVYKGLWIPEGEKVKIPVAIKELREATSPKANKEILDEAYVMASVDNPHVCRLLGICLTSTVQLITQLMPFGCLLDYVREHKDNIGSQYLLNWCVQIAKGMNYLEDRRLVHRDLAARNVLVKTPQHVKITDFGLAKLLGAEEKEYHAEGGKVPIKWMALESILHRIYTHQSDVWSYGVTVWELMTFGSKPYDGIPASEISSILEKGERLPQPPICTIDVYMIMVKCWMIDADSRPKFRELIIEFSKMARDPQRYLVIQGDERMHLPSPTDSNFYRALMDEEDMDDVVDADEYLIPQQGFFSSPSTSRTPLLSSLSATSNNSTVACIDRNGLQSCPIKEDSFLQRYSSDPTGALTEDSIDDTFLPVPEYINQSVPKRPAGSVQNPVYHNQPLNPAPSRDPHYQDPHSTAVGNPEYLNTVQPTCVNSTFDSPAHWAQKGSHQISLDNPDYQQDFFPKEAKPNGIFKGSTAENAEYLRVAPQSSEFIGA
Description: Inhibition of EGF-dependent proliferation of F/L-HERc cells. The note with it: human EGF 20 ng/ml, 48 hours. Format: cell-based. From the text: (§1) The inhibition of EGF-R-mediated signal transmission can be detected, for example, with cells which express human EGF-R, the survival and proliferation of which depend on stimulation by EGF or TGF-alpha. An interleukin-3 (IL-3)-dependent cell line of murine origin which was changed genetically such that it expresses functional human EGF-R was used here. The proliferation of these cells, called F/L-HERc, can therefore be stimulated either by murine IL-3 or by EGF (see von Ruden, T. et al. in EMBO J. 7, 2749-2756 (1988) and Pierce, J. H. et al. in Science 239, 628-631 (1988)).
(§2) The starting material used for the F/L-HERc cells was the cell line FDC-P1, the preparation of which has been described by Dexter, T. M. et al. in J. Exp. Med. 152, 1036-1047 (1980). Alternatively, however, other growth factor-dependent cells can also be used (see, for example, Pierce, J. H. et al. in Science 239, 628-631 (1988), Shibuya, H. et al. in Cell 70, 57-67 (1992) and Alexander, W. S. et al. in EMBO J. 10, 3683-3691 (1991)). Recombinant retroviruses were used for expression of the human EGF-R cDNA (see Ullrich, A. et al. in Nature 309, 418-425 (1984)), as described in yon Ruden, T. et al., EMBO J. 7, 2749-2756 (1988), with the difference that the retroviral vector LXSN (see Miller, A. D. et al. in BioTechniques 7, 980-990 (1989)) was used for expression of the EGF-R cDNA and the line GP+E86 (see Markowitz, D. et al. in J. Virol. 62, 1120-1124 (1988)) was used as the packing cell.
(§3) The test was carried out as follows:
(§4) F/L HERc cells were cultured at 37° C. and 5% CO2 in RPMI/1640 medium (BioWhittaker), supplemented with 10% foetal bovine serum (FCS, Boehringer Mannheim), 2 mM glutamine (BioWhittaker), standard antibiotics and 20 ng/ml of human EGF (Promega). For investigation of the inhibitory activity of the compounds according to the invention, 1.5×10^4 cells per well were cultured in triplicate in 96-well plates in the above medium (200 μl), proliferation of the cells being stimulated with either EGF (20 ng/ml) or murine IL-3. Culture stocks of the cell line X63/0 mIL-3 were used as the source for IL-3 (see Karasuyama, H. et al. in Eur. J. Immunol. 18, 97-104 (1988)). The compounds according to the invention were dissolved in 100% dimethyl sulphoxide (DMSO) and added to the cultures in various dilutions, the maximum DMSO concentration being 1%. The cultures were incubated at 37° C. for 48 hours.
(§5) To determine the inhibitory activity of the compounds according to the invention, the relative cell count was measured in OD units with Cell Titer 96™ Aqueous Non-Radioactive Cell Proliferation Assay (Promega). The relative cell count was calculated in per cent of the control (F/LHERc cells without inhibitor) and the active compound concentration which inhibits the proliferation of the cells to 50% (IC50) was deduced.

The test system of experiment [2] is F/L-HERc cells. Description: Inhibition of IL-3-dependent proliferation of F/L-HERc cells. Format: cell-based. The conditions noted are these: Mus musculus, murine IL-3, 48 hours.
Description: as §1, §2, §3, §4, §5

As to `Cc1cccc(Nc2ncnc3cnc(N4CCN(c5ccccc5)CC4)nc23)c1` [1(3), 4-[(3-Methylphenyl)amino]-6-(1-phenyl-4-piperazinyl)-pyrimido[5,4-d]pyrimidine], the IC50 in experiment [1] is 2500 nM; in experiment [2], greater than 10000 nM.
The like results for `Cc1cccc(Nc2ncnc3cnc(N)nc23)c1` [1(13), 4-[(3-Methylphenyl)amino]-6-amino-pyrimido[5,4-d]pyrimidine] were, in that order, 300 nM and greater than 10000 nM.
The like results for `CCN(CC)c1ncc2ncnc(Nc3cccc(C)c3)c2n1` [1(10), 4-[(3-Methylphenyl)amino]-6-(diethylamino)-pyrimido[5,4-d]pyrimidine] were, in that order, 500 nM and greater than 10000 nM.
Take `C#CCNc1ncc2ncnc(Nc3cccc(C)c3)c2n1` [1(23), 4-[(3-Methylphenyl)amino]-6-(propargylamino)-pyrimido[5,4-d]pyrimidine]: the IC50 in experiment [1] is 25 nM; in experiment [2], greater than 3000 nM.
Turning to `Fc1ccc(Nc2ncnc3cnc(NCCN4CCOCC4)nc23)cc1Cl` [1(129), 4-[(3-Chloro-4-fluoro-phenyl)amino]-6-[2-(morpholino)-ethylamino]-pyrimido[5,4-d]pyrimidine], the IC50 in experiment [1] was 8 nM; in experiment [2], greater than 20000 nM.
For `N#Cc1cc(Nc2ncnc3cnc(N[C@H]4CC[C@H](O)CC4)nc23)ccc1N` [1(201), 4-[(4-Amino-3-cyano-phenyl)amino]-6-[(trans-4-hydroxycyclohexyl)-amino]-pyrimido[5,4-d]pyrimidine], in that order: 32 nM and greater than 10000 nM.
As to `Cc1cccc(Nc2ncnc3cnc(Nc4ccc(N5CCCC5CO)cc4)nc23)c1` (stereo not shown) [1(193), 4-[(3-Methylphenyl)amino]-6-[4-(2-hydroxymethyl-1-pyrrolidinyl)phenylamino]-pyrimido[5,4-d]pyrimidine], the IC50 in experiment [1] is 4 nM; in experiment [2] it was 10000 nM.
Take `FC(F)(F)Oc1cccc(Nc2ncnc3cnc(NC4CC4)nc23)c1` [3(18), 4-[(3-Trifluoromethoxyphenyl)amino]-6-(cyclopropylamino)-pyrimido[5,4-d]pyrimidine]: the IC50 in experiment [1] is 50 nM; in experiment [2], greater than 3000 nM.
For `Cc1cccc(Nc2ncnc3cnc(NCC4COCCOCCOCCOCCO4)nc23)c1` (stereo not shown) [1(197)], the IC50 in experiment [1] was found to be 900 nM; in experiment [2], 10000 nM.
The like results for `Cc1cccc(Nc2ncnc3cnc(N4CCC(N)CC4)nc23)c1` [1(61), 4-[(3-Methylphenyl)amino]-6-(4-amino-1-piperidinyl)-pyrimido[5,4-d]pyrimidine] were, in that order, 32 nM and 9000 nM.
For `Cc1cccc(Nc2ncnc3cnc(N[C@H]4CC[C@H](C(=O)O)CC4)nc23)c1` [1(134), 4-[(3-Methylphenyl)amino]-6-[trans-4-carboxy-cyclohexylamino]-pyrimido[5,4-d]pyrimidine], in that order: 13 nM and greater than 10000 nM.
For `Cc1cccc(Nc2ncnc3cnc(NC4CCN(C)CC4)nc23)c1` [1(62), 4-[(3-Methylphenyl)amino]-6-[(1-methyl-4-piperidinyl)amino]-pyrimido[5,4-d]pyrimidine], in that order: 40 nM and greater than 1000 nM.
As to `Cc1cccc(Nc2ncnc3cnc(NC4CCC(=O)CC4)nc23)c1` [1(109), 4-[(3-Methylphenyl)amino]-6-[(4-oxo-cyclohexyl)amino]pyrimido[5,4-d]pyrimidine], the IC50 is 15 nM in experiment [1] and 10000 nM in experiment [2].
The like results for `Cc1cccc(Nc2ncnc3cnc(NC(C)CO)nc23)c1` (stereo not shown) [1(58), 4-[(3-Methylphenyl)amino]-6-(1-hydroxy-2-propylamino)pyrimido[5,4-d]pyrimidine] were, in that order, 20 nM and greater than 3000 nM.
For `O[C@H]1CC[C@H](Nc2ncc3ncnc(Nc4ccc(F)c(Cl)c4)c3n2)CC1` [1(204), 4-[(3-Chloro-4-fluoro-phenyl)amino]-6-[(trans-4-hydroxycyclohexyl)-amino]-pyrimido[5,4-d]pyrimidine], the IC50 in experiment [1] is 0.8 nM; in experiment [2], greater than 10000 nM.
The like results for `Cc1cccc(Nc2ncnc3cnc(N[C@H]4CC[C@H](C(=O)N5CCOCC5)CC4)nc23)c1` [1(140), 4-[(3-Methylphenyl)amino]-6-[trans-4-(morpholinocarbonyl)cyclohexylamino]-pyrimido[5,4-d]pyrimidine] were, in that order, 5 nM and greater than 10000 nM.
The like results for `COc1ncc2ncnc(Nc3cccc(C)c3)c2n1` [1(5), 4-[(3-Methylphenyl)amino]-6-methoxy-pyrimido[5,4-d]pyrimidine] were, in that order, 1000 nM and greater than 10000 nM.
For `O[C@H]1CC[C@H](Nc2ncc3ncnc(Nc4cccc(Cl)c4)c3n2)CC1` [1(110), 4-[(3-Chlorophenyl)amino]-6-[(trans-4-hydroxycyclohexyl)amino]pyrimido[5,4-d]pyrimidine], in that order: 2 nM and greater than 10000 nM.
Consider `O=[N+]([O-])c1cccc(Nc2ncnc3cnc(NC4CC4)nc23)c1` [3(45), 4-[(3-Nitrophenyl)amino]-6-(cyclopropylamino)-pyrimido[5,4-d]pyrimidine], for which the half-maximal inhibitory concentration (IC50) in experiment [1] was 20 nM; in experiment [2], greater than 1000 nM.
For `Cc1cccc(Nc2ncnc3cnc(NC4CCOCC4)nc23)c1` [1(170), 4-[(3-Methylphenyl)amino]-6-(4-tetrahydropyranylamino)-pyrimido[5,4-d]pyrimidine], in that order: 15 nM and greater than 10000 nM.
On to `N#Cc1cccc(Nc2ncnc3cnc(NC4CC4)nc23)c1` [3(19), 4-[(3-Cyanophenyl)amino]-6-(cyclopropylamino)-pyrimido[5,4-d]pyrimidine], for which the half-maximal inhibitory concentration (IC50) in experiment [1] is 15 nM; in experiment [2], greater than 3000 nM.
The like results for `Cc1cccc(Nc2ncnc3cnc(N[C@H]4CC[C@H](NC(=O)OC(C)(C)C)CC4)nc23)c1` [1(108), 4-[(3-Methylphenyl)amino]-6-[(trans-4-tert-butyloxycarbonylamino-cyclohexyl)amino]pyrimido[5,4-d]pyrimidine] were, in that order, 50 nM and greater than 10000 nM.
`Nc1c(Cl)cc(Nc2ncnc3cnc(N[C@H]4CC[C@H](O)CC4)nc23)cc1Cl` [1(207), 4-[(4-Amino-3,5-dichloro-phenyl)amino]-6-[(trans-4-hydroxycyclohexyl)-amino]-pyrimido[5,4-d]pyrimidine]: the IC50 was 2 nM in experiment [1] and greater than 10000 nM in experiment [2].
For `CC(CO)(CO)Nc1ncc2ncnc(Nc3ccc(Cl)c(F)c3)c2n1` [1(183), 4-[(4-Chloro-3-fluoro-phenyl)amino]-6-(1,3-dihydroxy-2-methyl-2-propylamino)-pyrimido[5,4-d]pyrimidine], in that order: 5 nM and greater than 20000 nM.
For `Brc1cccc(Nc2ncnc3cncnc23)c1` [4(1), 4-[(3-Bromophenyl)amino]-pyrimido[5,4-d]pyrimidine], the IC50 in experiment [1] was 2000 nM; in experiment [2], greater than 10000 nM.
For `Fc1cc(F)cc(Nc2ncnc3cnc(NC4CC4)nc23)c1` [3(5), 4-[(3,5-Difluorophenyl)amino]-6-(cyclopropylamino)-pyrimido[5,4-d]pyrimidine], in that order: 50 nM and greater than 3000 nM.

Source of the values: patent publication US5707989A, “Pyrimido[5,4-D]pyrimidines, medicaments comprising these compounds, their use and processes for their preparation” (Dr. Karl Thomae GmbH, priority 1994, dated 1998).
